Assay results taken from paper PMC3071374, “High Throughput Screens Yield Small Molecule Inhibitors of Leishmania CRK3:CYC6 Cyclin-Dependent Kinase” (PLoS Neglected Tropical Diseases, 2011).

Assays:
human CDK2:CycA = human CDK2:CycA (Homo sapiens, UniProt P24941); assay: Mammalian protein kinase assay / counter screen, CDK2:CYCA; assay type: biochemical; conditions: BioFocus SFK48 library, counter screen
Procedure: Leishmania CRK3:CYC6 protein kinase assays were performed in 96-well microtiter plates in a final volume of 25 µl. Each assay point contained 7.5 ng of co-expressed histidine-tagged CRK3:CYC6 protein kinase complex (hereafter referred to as CRK3:CYC6) diluted in enzyme dilution buffer (EDB) (20 mM Tris-HCl pH 7.2, 0.5 mg ml^−1 BSA, 2.5% glycerol and 0.006% Brij-35). Assays were performed using the assay development buffer (ADB) (20 mM MOPS, pH 7.0, 25 mM β-glycerophosphate, 5 mM EGTA, 1 mM NaVO3, 1 mM DTT and 15 mM MgCl2) supplemented with 100 µM ATP, 0.5 µCi of γ-^32P ATP per reaction and histone H1 as a substrate used at 0.4 mg ml^−1. Two and three-fold titrations were set up to determine the concentration of enzyme to be used per assay point (7.5 ng) and to determine the concentrations of selected inhibitors required for 50% inhibition of Leishmania CRK3:CYC6 protein kinase activity (IC50 values), respectively. For IC50 determinations, assay mixes contained DMSO to a final concentration of 2%. Mammalian protein kinase assays were carried out according to the assay protocols developed at Cyclacel. Assays were carried out for 30 minutes at 30°C before stopping the reaction by the addition of an equal volume (25 µl) of 75 mM orthophosphoric acid. Samples were spotted onto a p81 cellulose filterplate (Nunc) and a vacuum applied. Wells were washed 3×200 µl with 75 mM phosphoric acid and the bottom of the plate sealed. 50 µl of Microscint 40 (Perkin Elmer) was added per well before incorporation of radioactivity was determined on a Topcount microplate scintillation counter.

WT promastigote L. major = assay: L. major promastigote growth inhibition assay (resazurin); assay type: cell-based; conditions: BioFocus SFK48 HTS hits; 5 days at 25°C; read-out: IC50 against WT promastigote L. major
Procedure: L. major wild type promastigotes (Friedlin strain: WHO designation MHOM/JL/81/Friedlin) were grown at 25°C in HOMEM medium (Invitrogen cat no. 041-94699111) supplemented with 10% (v/v) heat inactivated foetal calf serum (HIFCS) and 1% (v/v) penicillin/streptomycin antibiotics.
CRK3 inhibitors were diluted into HOMEM medium supplemented with 10% HIFCS at twice the final screening concentration. Five-fold or ten-fold serial dilutions were carried out into HOMEM medium supplemented with 10% HIFCS. 100 µl of each drug concentration were added to a 96 well plate in duplicate. 100 µl of five-fold or ten-fold serial dilutions of 1 mM Pentamidine (Sigma) and an equivalent volume of 100% DMSO were included as positive and negative controls, in duplicate, respectively. L. major promastigote cells were diluted to a cell density of 2×10^6 cells ml^−1 in HOMEM media supplemented with 10% HIFCS and 100 µl added to all wells in 96 well plates. Plates were sealed with parafilm and incubated for 5 days at 25°C. After 5 days, 20 µl of filter sterile resazurin solution (12.5 mg resazurin salt in 100 ml PBS) (Sigma) was added to each of the wells and the plate incubated for a further 24 hours at 25°C. Fluorescence was measured using an Envision plate reader (Perkin Elmer) at 540 nm excitation wavelength and 590 nm emission wavelength.

Leishmania CRK3:CYC6 = Leishmania CRK3:CYC6 (Leishmania major, UniProt O96526); assay: IMAP fluorescence polarisation high throughput screen of CRK3:CYC6; assay type: biochemical, L. major; set-up: made in house; host or cells: E. coli BL21 (DE3) pLys-S; conditions: BioFocus SFK48 library, primary concentration 20 µM
Leishmania CRK3:CYC6, sequence (O96526 entry or part of it): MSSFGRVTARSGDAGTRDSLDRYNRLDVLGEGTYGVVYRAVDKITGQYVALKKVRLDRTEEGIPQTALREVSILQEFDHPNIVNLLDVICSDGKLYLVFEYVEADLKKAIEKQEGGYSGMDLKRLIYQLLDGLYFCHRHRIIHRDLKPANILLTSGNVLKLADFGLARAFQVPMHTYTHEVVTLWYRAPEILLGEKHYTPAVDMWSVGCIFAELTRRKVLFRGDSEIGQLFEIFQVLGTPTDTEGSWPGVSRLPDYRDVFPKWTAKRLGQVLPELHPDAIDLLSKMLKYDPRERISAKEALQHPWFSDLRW
Procedure: (§1) Protein kinase assays were performed in 384-well non-treated black plates (Nunc) in a final volume of 20 µl. Each assay point contained 1.25 ng of co-expressed Leishmania CRK3:CYC6 protein kinase complex. […] The enzyme complex, peptide and ATP were made up in the IMAP complete reaction buffer (CRB) (10 mM Tris-HCl, pH 7.2, 10 mM MgCl2, 0.05% NaN3, 0.01% Tween-20 and 1 mM DTT). Assays were carried out for 1 hour 20 minutes at room temperature and the reaction stopped by the addition of 50 µl of the IMAP progressive binding reagent (Proprietary buffer from Molecular Devices plus tri-valent metal-containing nanoparticles). The assay was left to proceed for a further 1 hour 20 minutes at room temperature and the fluorescence polarization determined by a Perkin Elmer Fusion microplate reader, with excitation at 485 nm and emission at 535 nm.

CRK3:CYC6 = conditions: peptide as substrate of CRK3:CYC6
CRK3:CYC6, sequence (O96526 entry or part of it): as above
Procedure: as §1
The IMAP fluorescent polarisation assay was selected for the high throughput screen. First a substrate finder assay was carried out with 61 potential serine/threonine protein kinase substrates. […] In order to establish the quantity of CRK3:CYC6 to use in the IMAP HTS assays, a two-fold enzyme titration was carried out (Figure S2 in Supporting Information Text S1).

Row | Compound | activity towards CDK2:CycA in the primary screen (human CDK2:CycA) | IC50 (WT promastigote L. major) [µM] | activity towards CRK3:CYC6 in the primary screen (Leishmania CRK3:CYC6) | ΔmP signal (CRK3:CYC6) [mP]
1 | NC(c1csc(NC(=O)Nc2cccc(Cl)c2)n1)c1ccccc1Cl (centres unmarked) [Compound 43] | active | 12.5 | active | –
2 | CN(C)Cc1csc(NC(=O)Nc2ccccc2Oc2ccccc2)n1 [Compound 44] | active | 14.4 | active | –
3 | COc1ccc(CC(N)c2csc(NC(=O)Nc3cc(OC)ccc3OC)n2)cc1 (centres unmarked) [Compound 45] | inactive | 6.8 | inactive | –
4 | COc1ccc(CNC(=O)Nc2nc(C(N)CCc3ccccc3)cs2)cc1 (centres unmarked) [Compound 46] | inactive | 7.8 | inactive | –
5 | FLAKSFGSPNRAYKK [CDK7 derived] | – | – | – | 180
6 | GGGPATPKKAKKL [Histone H1 derived] | – | – | – | 295
7 | GGGRSPGRRRRK [Generic Sequence] | – | – | – | 310
8 | PKTPKKAKKL [Histone H1 derived (aa 9–18)] | – | – | – | 280
9 | RRRFRPASPLRGPPK [DYRKtide] | – | – | – | 190
